Reference: patent US20090093420A1, “PROCESSES FOR THE PREPARATION OF AZITHROMYCIN” (WOCKHARDT LIMITED, priority 2006, published 2009)

Assays:
[1] = accelerated stability study of anhydrous azithromycin, storage at 40±2° C. at 75±5% relative humidity; format: physicochemical
[2] = stability study of anhydrous azithromycin, normal storage at 25±2° C. at 60±5% relative humidity; format: physicochemical
[3] = after 3 months of storage at 40±2° C. at 75±5% relative humidity
[4] = after 12 months of storage at 25±2° C. at 60±5% relative humidity

time for which the form is stable ([1]; accelerated stability studies): more than 3 months
moisture content after storage [1, 3]: ≤ 0.6%
purity by HPLC after storage [1, 3]: more than 98%
change in the related substance content on storage ([1]; stored at 40±2° C. at 75±5% relative humidity): no change
moisture content after storage [2, 4]: ≤ 0.6%
purity by HPLC after storage [2, 4]: more than 99%
time for which the form is stable ([2]; normal stability studies): more than 18 months
change in the related substance content on storage ([2]; stored at 25±2° C. at 60±5% relative humidity): no change
Compound: CCC1OC(=O)C(C)C(O[C@H]2C[C@@](C)(OC)[C@@H](O)C(C)O2)C(C)[C@@H](OC2OC(C)CC(N(C)C)[C@H]2O)[C@@](C)(O)C[C@@H](C)CN(C)[C@H](C)[C@@H](O)[C@]1(C)O (stereo partly drawn) [anhydrous azithromycin, (2R,3S,4R,5R,5R,10R,11R,12S,13S,14R)-13-[(2,6-dideoxy-3-C-methyl-3-O-methyl-a-L-ribo-hexopyranosyl)oxy]-2-ethyl-3,4,10-trihydroxy-3,5,6,8,10,12,14-heptamethyl-11-[[3,4,6-trideoxy-3-(dimethylamino)-b-D-xylo-hexopyranosyl]oxy]-1-oxa-6-azacyclopentadecan-15-one]
